Reference: publication PMC6270983, “Gastroprotective Mechanisms of Action of Semisynthetic Carnosic Acid Derivatives in Human Cells” (Molecules, 2014)

Key:
[1] = tested on: human erythrocyte membranes; experiment: Inhibition of lipoperoxidation in erythrocyte membranes; type: biochemical
Method: The inhibition of lipid peroxidation was determined using human erythrocyte membranes. The products were tested at 500 µg/mL.

AGS cells [2] = experiment: Sodium taurocholate (NaT)-induced damage to AGS cells, viability by neutral red uptake; conditions: 60 min pre-treatment, then 10 mM NaT 30 min
Method: The model of AGS cells damaged by sodium taurocholate (NaT) was used to determine the gastroprotective effect of the compounds against the bile-induced injury on the gastric mucosa [10].
The effect of sodium taurocholate (NaT) on cell viability was determined according to Romano et al. [10]. […] Then, 10 mM NaT was added to all wells for 30 min. Un-treated cells were used as controls. Sucralfate (4 mg/mL) was used as reference compound. After incubation, the neutral red uptake (NRU, 0.05 mg/mL) assay was carried out to determine cell viability [4, 33].

AGS cells [3] = experiment: Cellular reduced glutathione (GSH) content in AGS cells co-incubated with 4% ethanol; type: cell-based, human; conditions: 12 h; for percent increase of GSH content compared with untreated controls: AGS cells
MRC-5 fibroblasts = experiment: Proliferation assay of MRC-5 fibroblasts, neutral red uptake; type: cell-based, human; conditions: 4 days
Method: Human lung fibroblasts MRC-5 (ATCC CCL-171) were grown as monolayers in minimum essential Eagle medium (MEM), with Earle’s salts, 2 mM L-glutamine and 2.2 g/L sodium bicarbonate, supplemented with 10% heat-inactivated fetal bovine serum (FBS), 100 IU/mL penicillin and 100 µg/mL streptomycin in a humidified incubator with 5% CO2 in air at 37 °C. For the subsequent experiments, cells were plated at a density of 2.5 × 10^4 cells/mL in 96-well plates.
Untreated cells were used as controls. Cell viability was determined at the end of the incubation by means of the NRU assay. The neutral red concentration was 0.05 mg/mL [4, 33].

AGS cells [4] = experiment: Prostaglandin E2 (PGE2) content of AGS cells, enzyme immunoassay; type: cell-based, human

CC(C)c1cc2c(c(O)c1O)[C@@]1(C(=O)O)CCCC(C)(C)[C@@H]1CC2 [CA, Carnosic acid] was tested, and the “Inhibition of the lipoperoxidation, IC50” value [1] was “IC50 2.4 ± 0.18 µg/mL”, the “percent cytoprotective effect compared to NaT control” value (shortened to “percent cytoprotective effect”) (AGS cells [2]; 6 µM) was 23% and the “percent cytoprotective effect” value (AGS cells [2]; 12 µM) was 22%. The “percent increase of GSH content compared with untreated controls” value (“percent increase of GSH content” below) (AGS cells [3]; 4.5 µM) was 19%.

O.Oc1cc(O)c2c(c1)O[C@H](c1ccc(O)c(O)c1)[C@@H](O)C2 [Catechin, reference compound] was tested, and the “Inhibition of the lipoperoxidation, IC50” value [1] was “IC50 75.4 ± 6.0 µg/mL”.

For COC(=O)[C@]12CCCC(C)(C)C1CCc1cc(C(C)C)c(O)c(O)c12 (stereo partly shown) [Compound 1], the “Inhibition of the lipoperoxidation, IC50” value [1] was “IC50 34.4 ± 4.1 µg/mL” and the “percent cytoprotective effect” value (AGS cells [2]; 3 µM) was 13%.

With COC(=O)[C@]12CCCC(C)(C)C1CCc1cc(C(C)C)c(OC)c(OC)c12 (stereo partly shown) [Compound 2] the “Inhibition of the lipoperoxidation, percent effect at 500 µg/mL” value (shortened to “Inhibition … percent effect at 500 µg/mL”) [1] was 53%.

In the case of CC(=O)Oc1c(C(C)C)cc2c(c1OC(C)=O)[C@@]1(C(=O)O)CCCC(C)(C)C1CC2 (stereo partly shown) [Compound 3], the “Inhibition … percent effect at 500 µg/mL” value [1] is reported as 11%, the “percent cytoprotective effect” value (AGS cells [2]; 10.5 µM) is reported as 13% and the “percent cytoprotective effect” value (AGS cells [2]; 21 µM) is reported as 15%. The “percent cytoprotective effect” value (AGS cells [2]; 42 µM) was 13%.

COC(=O)[C@]12CCCC(C)(C)C1CCc1cc(C(C)C)c(OC(=O)CCl)c(OC(=O)CCl)c12 (stereo partly shown) [Compound 5] was tested, and the “Inhibition of the lipoperoxidation, IC50” value [1] was “IC50 27.6 ± 3.0 µg/mL”, the “percent cytoprotective effect” value (AGS cells [2]; 1.1 µM) was 17% and the “percent cytoprotective effect” value (AGS cells [2]; 2.3 µM) was 15%. For the same molecule, the “percent cytoprotective effect” value (AGS cells [2]; 4.5 µM) was 8%.

In the case of CCC(=O)Oc1c(C(C)C)cc2c(c1O)[C@@]1(C(=O)OC)CCCC(C)(C)C1CC2 (stereo partly shown) [Compound 6], the “Inhibition … percent effect at 500 µg/mL” value [1] is reported as 42%.

For CCCC(=O)Oc1c(C(C)C)cc2c(c1OC(=O)CCC)[C@@]1(C(=O)OC)CCCC(C)(C)C1CC2 (stereo partly shown) [Compound 7], the “Inhibition … percent effect at 500 µg/mL” value [1] was 34% and the “stimulation of fibroblast proliferation compared to untreated controls” value (MRC-5 fibroblasts; 16 µM) was 8%.

For COC(=O)[C@]12CCCC(C)(C)C1CCc1cc(C(C)C)c(OC(=O)C(C)C)c(O)c12 (stereo partly shown) [Compound 8], the “Inhibition of the lipoperoxidation, IC50” value [1] was “IC50 13.6 ± 1.48 µg/mL”.

COC(=O)[C@]12CCCC(C)(C)C1CCc1cc(C(C)C)c(OC(=O)c3ccccc3)c(OC(=O)c3ccccc3)c12 (stereo partly shown) [Compound 9] was tested, and the “Inhibition of the lipoperoxidation, IC50” value [1] was “IC50 147.2 ± 16.6 µg/mL”.

In the case of COC(=O)[C@]12CCCC(C)(C)C1CCc1cc(C(C)C)c(OC(=O)c3cccnc3)c(OC(=O)c3cccnc3)c12 (stereo partly shown) [Compound 10, 11,12-O-dinicotinylmethylcarnosate], the “Inhibition … percent effect at 500 µg/mL” value [1] is reported as 22% and the “percent increase of GSH content” value (AGS cells [3]; 1.4 µM) is reported as 14%.

In the case of COC(=O)[C@]12CCCC(C)(C)C1CCc1cc(C(C)C)c(OC(=O)Cc3ccccc3)c(OC(=O)Cc3ccccc3)c12 (stereo partly shown) [Compound 11], the “Inhibition of the lipoperoxidation, IC50” value [1] is reported as “IC50 140.4 ± 12.6 µg/mL” and the “percent cytoprotective effect” value (AGS cells [2]; 62.5 µM) is reported as 12%.

With COC(=O)[C@]12CCCC(C)(C)C1CCc1cc(C(C)C)c(OC(=O)Cc3c[nH]c4ccccc34)c(OC(=O)Cc3c[nH]c4ccccc34)c12 (stereo partly shown) [Compound 12] the “Inhibition … percent effect at 500 µg/mL” value [1] was 38%.

For COC(=O)[C@]12CCCC(C)(C)C1CCc1cc(C(C)C)c(OC(=O)CCCc3c[nH]c4ccccc34)c(O)c12 (stereo partly shown) [Compound 13, 12-O-indolebutyrylmethylcarnosate], the “increase of PGE2 content compared to controls” value (AGS cells [4]; 20 µM, AGS cells) was 2.7 fold, the “Inhibition … percent effect at 500 µg/mL” value [1] was 49% and the “percent cytoprotective effect” value (AGS cells [2]; 2.5 µM) was 12%. For the same molecule, the “percent cytoprotective effect” value (AGS cells [2]; 5 µM) was 8% and the “percent increase of GSH content” value (AGS cells [3]; 2.0 µM) was 11%.

In the case of COc1c(C(C)C)cc2c(c1O)[C@@]1(C(=O)O)CCCC(C)(C)C1CC2 (stereo partly shown) [Compound 14, 12-O-methylcarnosic acid], the “Inhibition of the lipoperoxidation, IC50” value [1] is reported as “IC50 186.3 ± 16.9 µg/mL”, the “percent cytoprotective effect” value (AGS cells [2]; 2.8 µM) is reported as 12% and the “percent cytoprotective effect” value (AGS cells [2]; 5.6 µM) is reported as 5%. The “percent increase of GSH content” value (AGS cells [3]; 2.3 µM) was 8%.

With COC(=O)[C@]12CCCC(C)(C)C1CCc1cc(C(C)C)c(OC)c(O)c12 (stereo partly shown) [Compound 15, 12-O-metylmethylcarnosate] the “Inhibition of the lipoperoxidation, IC50” value [1] was “IC50 165.0 ± 14.9 µg/mL” and the “percent increase of GSH content” value (AGS cells [3]; 4.5 µM) was 11%.

In the case of CCCOc1c(OC)c(C(C)C)cc2c1[C@@]1(C(=O)OC)CCCC(C)(C)C1CC2 (stereo partly shown) [Compound 16], the “Inhibition … percent effect at 500 µg/mL” value [1] is reported as 46%, the “growth stimulation compared to untreated controls” value (MRC-5 fibroblasts; 12 µM) is reported as 8% and the “growth stimulation compared to untreated controls” value (MRC-5 fibroblasts; 24 µM) is reported as 18%.

With COC(=O)[C@]12CCCC(C)(C)C1CCc1cc(C(C)C)c(OC)c(OC(C)=O)c12 (stereo partly shown) [Compound 17] the “stimulation of fibroblast proliferation compared to untreated controls” value (MRC-5 fibroblasts; 23 µM) was 7%.

For CCCOC(=O)[C@]12CCCC(C)(C)C1CCc1cc(C(C)C)c(OC)c(OCCC)c12 (stereo partly shown) [Compound 18], the “stimulation of fibroblast proliferation compared to untreated controls” value (MRC-5 fibroblasts; 32 µM) was 16% and the “stimulation of fibroblast proliferation compared to untreated controls” value (MRC-5 fibroblasts; 63 µM) was 22%.

For COc1ccc2c(c1)c(CC(=O)O)c(C)n2C(=O)c1ccc(Cl)cc1 [Indomethacin, reference compound], the “PGE2” value (AGS cells [4]; 100 µM, 1 h, control 24.9 ± 2.1) was 8.5 ± 1.3 pg/mL.

For CC(=O)N[C@@H](CS)C(=O)O [NAC, N-acetyl-L-cysteine, reference compound], the “GSH (nmol/10^6 cells)” value (AGS cells [3]; 750 µM, control 3.6 ± 0.2) was 4.0 ± 0.2 nmol/10^6 cells and the “percent increase of GSH content” value (AGS cells [3]; 750 µM) was 11%.
